Values of other authors in patent publication US10324098B2, “T2R taste receptors and genes encoding same” (SENOMYX, INC., priority 2000, dated 2019).

Legend:
mouse T2R5 [1] = molecular target: T1, mouse T2R5 (Mus musculus, UniProt Q9JKT4)
T1 sequence (Q9JKT4 1-300): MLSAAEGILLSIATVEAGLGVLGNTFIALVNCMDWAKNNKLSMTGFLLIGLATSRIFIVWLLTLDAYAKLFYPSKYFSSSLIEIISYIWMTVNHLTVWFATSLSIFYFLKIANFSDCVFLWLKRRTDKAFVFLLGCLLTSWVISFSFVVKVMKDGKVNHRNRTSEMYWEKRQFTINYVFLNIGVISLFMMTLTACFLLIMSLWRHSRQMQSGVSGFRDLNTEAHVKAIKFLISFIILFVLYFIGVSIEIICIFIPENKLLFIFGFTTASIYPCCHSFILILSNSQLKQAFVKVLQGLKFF

mouse T2R5 [2] = molecular target: T1, mouse T2R5; conditions: mouse T2R5, G Protein gustducin
human T2R4 = molecular target: T2, human T2R4 (Homo sapiens, UniProt Q9NYW5)
T2 sequence (Q9NYW5 1-299): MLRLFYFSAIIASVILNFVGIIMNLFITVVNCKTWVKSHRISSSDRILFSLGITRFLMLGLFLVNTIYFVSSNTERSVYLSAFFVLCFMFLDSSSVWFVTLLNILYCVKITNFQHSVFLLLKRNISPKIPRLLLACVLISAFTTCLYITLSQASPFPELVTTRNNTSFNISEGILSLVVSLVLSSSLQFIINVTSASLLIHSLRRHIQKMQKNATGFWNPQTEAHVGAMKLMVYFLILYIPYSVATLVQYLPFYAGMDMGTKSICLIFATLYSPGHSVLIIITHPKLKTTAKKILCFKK

mouse T2R8 = molecular target: T3, mouse T2R8 (Mus musculus, UniProt Q9JKT3)
T3 sequence (Q9JKT3 1-297): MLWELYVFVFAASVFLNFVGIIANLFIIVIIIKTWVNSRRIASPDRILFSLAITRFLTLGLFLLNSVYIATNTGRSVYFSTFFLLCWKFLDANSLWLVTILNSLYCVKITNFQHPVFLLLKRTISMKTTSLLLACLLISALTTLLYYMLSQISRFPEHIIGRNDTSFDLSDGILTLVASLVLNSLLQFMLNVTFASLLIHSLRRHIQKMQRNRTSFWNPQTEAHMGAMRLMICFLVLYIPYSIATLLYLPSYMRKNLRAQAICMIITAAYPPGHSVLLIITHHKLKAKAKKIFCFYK

SMILES	receptor receptive to tastant (mouse T2R5 [1])	ligand dependent coupling with gustducin (mouse T2R5 [2])	receptor responsive to tastant (human T2R4)	receptor responsive to tastant (mouse T2R8)
C[C@@H]1C[C@@H]([C@H](O)CC2CC(=O)NC(=O)C2)C(=O)[C@@H](C)C1 [cycloheximide]	specifically receptive	strong cycloheximide dependent coupling with gustducin		
CC[N+](CC)(CC(=O)Nc1c(C)cccc1C)Cc1ccccc1 [denatonium]			specifically responsive	specifically responsive
CCCc1cc(=O)[nH]c(=S)[nH]1 [PROP, 6-n-propylthiouracil]			specifically responsive	specifically responsive
